# pIC50: −log10 of the molar value. Like-named read-outs stand apart in the source and are kept apart here.
# Key:
# brain ischemia = test: Anoxic Nitrogen Test in Rats; assay type: in vivo, male Sprague-Dawley rats; settings: Rattus norvegicus, sc, subcutaneously, 2 hr survival, read-out: Nitrogen Anoxia % Survival
# Description: Most specifically, administration of the compounds of Formula I results in protection against hypoxia-induced death in an anoxic nitrogen test in rats (Example 66). The test identifies the neuro-protective effects of substances against lethal brain damages produced by a lack of oxygen consumption (anoxia). In this test procedure, control animals exposed for one minute to a pure nitrogen atmosphere will expire because of respiratory failure caused by irreversible damage to the brain respiratory center.
# Anoxic Nitrogen Test in Rats
# The animals utilized are male Sprague-Dawley rats (200-400 grams) housed four animals per cage in a normal controlled environment with unlimited access to food and water. Usually there are 8 animals per dose, however, […] can be employed to obtain an initial impression of a compound's activity. Animals are parenterally or orally administered the vehicle or test compound 30 minutes before the anoxic insult. The anoxic episode consists of placing up to 8 animals in the sealed test chamber (10" l×10" w×6" h) continuously flushed with pure N2 (4.5 grade) at a flow rate of 5 SCFM for 1 min. Animals are then promptly removed to normal atmosphere and observed for the 2 hour period. Typically, animals become disoriented within 15 sec after which they remain motionless.
# Even though the heart is still beating after the N2 exposure, all control animals fail to gasp when removed from the chamber and usually expire within 3 minutes. Drug treated animals, however, still gasp or start gasping after being removed, which is a good indication that the animals will survive the N2 exposure [see Wauquire, A., et al: Arch. Int. Pharmacodyn., 249, 330-334 (1981); Wauquier, A., et al: Drug Dev. Res., 8, 373-380 (1986)]. Results are recorded as:
# (Number of animals surviving (2 hr))/(Number of animals tested)×100%
# The anoxic nitrogen test is an in vivo model of brain ischemia in rats [see: Wauquire, A., et al: Arch. Int. Pharmacodyn., 249, 330-334 (1981); Wauquier, A., et al: Drug Dev. Res., 8, 373-380 (1986)]. Compounds of the present invention are active in this in vivo model of brain ischemia when given subcutaneously in the doses indicated in Table 2, thus providing additional evidence that the present compounds will be useful in the treatment of brain ischemia.
# sigma receptor = target: T1, sigma receptor (Cavia porcellus, UniProt Q60492); test: Sigma binding (method of Tam and Cook)
# T1 construct: from tissue
# T1 sequence (Q60492 whole entry): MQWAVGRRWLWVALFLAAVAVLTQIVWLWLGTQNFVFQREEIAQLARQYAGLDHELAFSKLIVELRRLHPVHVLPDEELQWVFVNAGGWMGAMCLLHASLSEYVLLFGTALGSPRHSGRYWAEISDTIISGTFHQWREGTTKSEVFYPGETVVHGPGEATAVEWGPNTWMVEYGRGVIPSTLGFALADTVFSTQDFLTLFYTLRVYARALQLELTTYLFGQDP
# Protocol: In vitro IC50 test values for binding to the sigma receptor were determined for representative compounds of Formula I by the method of Tam and Cook [see: Tam, S. W., and Cook, L: Proc. Natl. Acad. Sci. USA 81, 5618-5621 (1984)] with only minor modifications. Test IC50 values lower than 100 nM are considered to reflect activity at the sigma receptor.
# Dopamine D2 = target: T2, Dopamine D2 (Rattus norvegicus, UniProt P61169); test: Dopamine D2 Binding Assay ([3H]Spiperone, corpus striatum membranes); set-up: species or system male Sprague-Dawley rats; settings: [3H]Spiperone 0.1 nM, 37° C., 15 min
# T2 construct: The corpus striatum was crudely dissected and frozen on dry ice; from tissue; host or cells: rat corpus striatum membranes (male Sprague-Dawley rats, Charles River)
# T2 sequence (P61169 whole entry): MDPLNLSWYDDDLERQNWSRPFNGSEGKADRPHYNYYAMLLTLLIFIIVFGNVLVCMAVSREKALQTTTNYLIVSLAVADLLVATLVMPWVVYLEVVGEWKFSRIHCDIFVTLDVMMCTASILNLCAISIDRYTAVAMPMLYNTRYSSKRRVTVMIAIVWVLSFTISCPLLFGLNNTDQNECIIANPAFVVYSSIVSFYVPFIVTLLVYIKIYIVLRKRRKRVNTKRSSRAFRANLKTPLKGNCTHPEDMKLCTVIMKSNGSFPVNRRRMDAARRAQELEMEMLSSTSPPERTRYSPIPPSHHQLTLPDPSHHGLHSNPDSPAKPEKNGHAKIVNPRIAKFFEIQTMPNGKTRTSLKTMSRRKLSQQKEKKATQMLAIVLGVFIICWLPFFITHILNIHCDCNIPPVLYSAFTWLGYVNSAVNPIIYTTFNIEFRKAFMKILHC
# Protocol: Activity at D2 sites is measured using the screening process set out in Example 67.
# Dopamine D2 Binding Assay
# Dopamine D2 affinity was determined according to the procedures of Burt, Creese and Snyder [Molecular Pharmacology 12,800 (1976); Science 196, 326 (1977); Science 192, 481 (1976)]. Briefly, male Sprague-Dawley rats (Charles River) were decapitated, brains rapidly removed and chilled in ice-cold 50 mM Hepes/KOH buffer (pH 7.4, 20° C.). The corpus striatum was crudely dissected and frozen on dry ice. Tissue was pooled and stored at -80° C. until use. On the day of assay, tissue was thawed in 20 ml ice-cold Hepes/KOH buffer, and homogenized with a polytron for 15 sec at 18,000 rpm. The homogenate was centrifuged (39,000×g, 10 min, at 4° C.). The supernatant was discarded and the pellet rehomogenized in ice-cold Hepes/KOH buffer and recentrifuged as described previously. The supernatant was again discarded and the pellet resuspended (1:100) in ice-cold Hepes/KOH buffer (pH 7.4, 20° C., containing 120 mM NaCl, 5 mM KCl, 1 mM MgCl2, 0.1% (w/v) ascorbic acid, and 10 μM pargylline, and stored on ice until assay. The binding assay (1 ml total volume) was performed in duplicate and initiated by the addition of 800 μl membrane homogenate to tubes containing 100 μl [^3 H]Spiperone (0.1 nM final concentration), and 100 μl competitor, buffer, or butaclamol, which was used to define the non-specific binding. The assay was incubated at 37° C. for 15 min, afterwhich the assay was terminated by rapid filtration.
# In vitro IC50 test values for binding to the D2 receptor were determined for representative compounds of Formula I by the method of Burt, Creese, and Snyder, Molecular Pharmacology 12, 800 (1976); Creese, Burt, and Snyder, Science 196, 326 (1977); and Creese, Burt and Snyder, Science 192, 481 (1976). Test IC50 values greater than 1,000 nM are considered to reflect inactivity at the D2 receptor, indicating the risk of extrapyramidal side effects is small.
compound,measurement,setting,value
"Fc1ccc2[nH]cc(C3=CCC(N4CCN(Cc5ccccc5)CC4)CC3)c2c1 (stereo not drawn) [Example 49, 5-Fluoro-3-{4-[4-(phenylmethyl)-1-piperazinyl]-1-cyclohexen-1-yl]-1H-indole]",responders at 10 mg/kg,brain ischemia; 10 & 60 mg/kg,92%
same,pIC50,sigma receptor,8.07
same,pIC50,Dopamine D2,5.00 to 6.00
"Clc1ccc2[nH]cc(C3=CCC(N4CCN(Cc5ccccc5)CC4)CC3)c2c1 (stereo not drawn) [Example 50, 5-Chloro-3-{4-[4-(phenylmethyl)-1-piperazinyl]-1-cyclohexen-1-yl]-1H-indole]",responders at 20 mg/kg,brain ischemia; 20 mg/kg,100%
same,pIC50,sigma receptor,7.50
same,pIC50,Dopamine D2,4.30 to 5.00
"Fc1ccc2[nH]cc(C3=CCC(N4CCC(Cc5ccccc5)CC4)CC3)c2c1 (stereo not drawn) [Example 51, 5-Fluoro-3-{4-[4-(phenylmethyl)-1-piperidinyl]-1-cyclohexen-1-yl]-1H-indole]",responders at 20 mg/kg,brain ischemia; 20 & 40 mg/kg,67%
same,pIC50,sigma receptor,7.95
same,pIC50,Dopamine D2,5.00 to 6.00
"COc1cccc(CC2CCN(C3CC=C(c4ccc5c(c4)OCO5)CC3)CC2)c1 (stereo not drawn) [Example 52, 1-[4-(1,3-Benzodioxol-5-yl)-3-cyclohexen-1-yl]-4-[(3-methoxyphenyl)methyl]piperidine]",responders at 10 mg/kg,brain ischemia; 10 mg/kg,38%
same,pIC50,sigma receptor,8.13
same,pIC50,Dopamine D2,5.00 to 6.00
"Fc1ccc(F)c(CC2CCN(C3CC=C(c4ccc5c(c4)OCO5)CC3)CC2)c1 (stereo not drawn) [Example 54, 1-[4-(1,3-Benzodioxol-5-yl)-3-cyclohexen-1-yl]-4-[(2,5-difluorophenyl)methyl]piperidine]",responders at 10 mg/kg,brain ischemia; 10 mg/kg,38%
same,pIC50,sigma receptor,8.44
same,pIC50,Dopamine D2,5.00 to 6.00
"COc1cccc(CN2CCN(C3CC=C(c4ccc(F)cc4)CC3)CC2)c1 (stereo not drawn) [Example 60, 1-[(4-Fluorophenyl)-3-cyclohexen-1-yl]-4-[(3-methoxyphenyl)methyl]piperazine]",responders at 10 mg/kg,brain ischemia; 10 mg/kg,50%
same,pIC50,sigma receptor,8.28
same,pIC50,Dopamine D2,5.00 to 6.00
"Fc1ccc([C@H]2CC[C@@H](N3CCN(Cc4ccccc4)CC3)CC2)c2ccccc12 [Example 62-cis, Cis and trans 1-[4-(4-fluoro-1-naphthalenyl)-1-cyclohexyl]-4-(phenylmethyl)piperazine]",responders at 40 mg/kg,brain ischemia,63%
same,pIC50,sigma receptor,8.16
same,pIC50,Dopamine D2,< 4.00
"Fc1ccc([C@H]2CC[C@H](N3CCN(Cc4ccccc4)CC3)CC2)c2ccccc12 [Example 62-trans, Cis and trans 1-[4-(4-fluoro-1-naphthalenyl)-1-cyclohexyl]-4-(phenylmethyl)piperazine]",responders at 40 mg/kg,brain ischemia,100%
same,pIC50,sigma receptor,8.48
same,pIC50,Dopamine D2,< 4.00
"Fc1ccc([C@H]2CC[C@H](N3CCN(Cc4ccccc4)CC3)CC2)cc1 [Example 63, Trans 1-[4-(4-fluorophenyl)-1-cyclohexyl]-4-(phenylmethyl)piperazine]",responders at 20 mg/kg,brain ischemia; 20 & 40 mg/kg,75%
same,pIC50,sigma receptor,9.15
same,pIC50,Dopamine D2,5.00 to 6.00
"COc1cccc(CN2CCN([C@H]3CC[C@H](c4ccc(F)cc4)CC3)CC2)c1 [Example 65, Trans 1-[4-(4-fluorophenyl)-1-cyclohexyl]-4-[(3-methoxyphenyl)methyl]piperazine]",responders at 10 mg/kg,brain ischemia; 10 mg/kg,62%
same,pIC50,sigma receptor,8.49
same,pIC50,Dopamine D2,5.00 to 6.00

# Source: patent publication US6153611A, “Piperazinyl-cyclohexanes and cyclohexenes” (Bristol-Myers Squibb Company, priority 1993, dated 2000)
